According to patent US10913720B2, “Benzyloxypyridylcyclopropanecarboxylic acids, pharmaceutical compositions and uses thereof” (Boehringer Ingelheim International GmbH, priority 2017, dated 2021):
pEC50: −log10 of the molar value.

Target: human GPR40 receptor (Homo sapiens, UniProt O14842)
Assay: IP1 accumulation measurements using the IPOne assay system
Assay type: cell-based
Details: 1321N1 cells stably expressing human GPR40; 1 h stimulation at 37° C.
Description: IP1 accumulation measurements using the IPOne assay system—1321N1 cells stably expressing human GPR40 receptor (Euroscreen, Belgium) are seeded 24 h before the assay in white 384-well plates in culture medium containing 10% FCS, 1% Na-Pyruvate and 400 μg/mL G418. IP1 is assayed according to the manufacturer's description (Cisbio Bioassays, France). In brief, the assay is started by substitution of the culture medium by stimulation buffer (Hepes 10 mM, CaCl2) 1 mM, MgCl2 0.5 mM, KCl 4.2 mM, NaCl 146 mM, glucose 5.5 mM and LiCl 50 mM, pH 7.4). Cells are stimulated for 1 h at 37° C., 5% CO2 by addition of the compounds that are diluted in stimulation buffer containing LiCl. Assays are stopped by adding HTRF-conjugates (IP1-d2 and Anti-IP1 cryptate Tb) and lysis buffer, provided by the manufacturer. After an incubation time of 1 h at room temperature plates are measured using an EnVision™, Perkin Elmer. The obtained fluorescence ratios at 665/615 […] are then used to calculate the pEC50 values using Assay Explorer 3.3 Software (Accelrys, Inc.) by interpolation using an IP1 reference curve and subsequent sigmoidal curve fitting allowing for a variable hill slope.

human GPR40 receptor, sequence (O14842 whole entry): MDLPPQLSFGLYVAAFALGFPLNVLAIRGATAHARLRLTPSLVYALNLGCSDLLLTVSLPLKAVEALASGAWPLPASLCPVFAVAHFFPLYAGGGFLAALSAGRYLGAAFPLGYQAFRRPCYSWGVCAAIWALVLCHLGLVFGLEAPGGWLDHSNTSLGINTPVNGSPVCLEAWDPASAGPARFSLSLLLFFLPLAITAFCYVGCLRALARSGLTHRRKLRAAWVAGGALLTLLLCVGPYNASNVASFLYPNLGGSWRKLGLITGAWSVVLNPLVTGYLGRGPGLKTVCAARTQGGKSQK

Cc1cnc(-c2cc(C)c(-c3cccc(COc4ccc([C@H]5C[C@@H]5C(=O)O)nc4)c3)c(C)c2)nc1 [Example 2, (1S,2S)-2-{5-[2′,6′-Dimethyl-4′-(5-methyl-pyrimidin-2-yl)-biphenyl-3-ylmethoxy]-pyridin-2-yl}-cyclopropanecarboxylic Acid]
pEC50: 8.22

Cc1cc(-c2nnn(CC(C)(C)O)n2)cc(C)c1-c1ccc(F)c(COc2ccc([C@H]3C[C@@H]3C(=O)O)nc2)c1 [Example 18, (1S,2S)-2-(5-{4-Fluoro-4′-[2-(2-hydroxy-2-methyl-propyl)-2H-tetrazol-5-yl]-2′,6′-dimethyl-biphenyl-3-ylmethoxy}-pyridin-2-yl)-cyclopropanecarboxylic Acid]
pEC50: 8.22

Cc1cc(OCC2CCOCC2)cc(C)c1-c1cccc(COc2ccc([C@H]3C[C@@H]3C(=O)O)nc2)c1 [Example 10, (1S,2S)-2-{5-[2′,6′-Dimethyl-4′-(tetrahydro-pyran-4-ylmethoxy)-biphenyl-3-ylmethoxy]-pyridin-2-yl}-cyclopropanecarboxylic Acid]
pEC50: 7.64

COc1ccc(-c2ccc(-c3cc(COc4ccc([C@H]5C[C@@H]5C(=O)O)nc4)ccc3C(F)(F)F)cc2)nn1 [Example 29, (1S,2S)-2-{5-[4′-(6-Methoxy-pyridazin-3-yl)-6-trifluoromethyl-biphenyl-3-ylmethoxy]-pyridin-2-yl}-cyclopropanecarboxylic Acid]
pEC50: 8.00

COc1cc(C)c(-c2cccc(COc3ccc([C@H]4C[C@@H]4C(=O)O)nc3)c2)c(C)c1 [Example 14, (1S,2S)-2-[5-(4′-Methoxy-2′,6′-dimethyl-biphenyl-3-ylmethoxy)-pyridin-2-yl]-cyclopropanecarboxylic Acid]
pEC50: 7.57

Cc1cc(-c2ccc(=O)n(C)c2)cc(C)c1-c1cccc(COc2ccc([C@H]3C[C@@H]3C(=O)O)nc2)c1 [Example 4, (1S,2S)-2-{5-[2′,6′-Dimethyl-4′-(1-methyl-6-oxo-1,6-dihydro-pyridin-3-yl)-biphenyl-3-ylmethoxy]-pyridin-2-yl}-cyclopropanecarboxylic Acid]
pEC50: 7.82

Cc1cc(-c2ccnn2C)cc(C)c1-c1cccc(COc2ccc([C@H]3C[C@@H]3C(=O)O)nc2)c1 [Example 7, (1S,2S)-2-{5-[2′,6′-Dimethyl-4′-(2-methyl-2H-pyrazol-3-yl)-biphenyl-3-ylmethoxy]-pyridin-2-yl}-cyclopropanecarboxylic Acid]
pEC50: 7.96

Cc1cc(OCCC(C)(C)O)cc(C)c1-c1cc(COc2ccc([C@H]3C[C@@H]3C(=O)O)nc2)c(F)cc1F [Example 26, (1S,2S)-2-{5-[4,6-Difluoro-4′-(3-hydroxy-3-methyl-butoxy)-2′,6′-dimethyl-biphenyl-3-ylmethoxy]-pyridin-2-yl}-cyclopropanecarboxylic Acid]
pEC50: 7.92

Cc1cc(OCC(C)(C)O)cc(C)c1-c1ccc(F)c(COc2ccc([C@H]3C[C@@H]3C(=O)O)nc2)c1 [Example 25, (1S,2S)-2-{5-[4-Fluoro-4′-(2-hydroxy-2-methyl-propoxy)-2′,6′-dimethyl-biphenyl-3-ylmethoxy]-pyridin-2-yl}-cyclopropanecarboxylic Acid]
pEC50: 7.44

Cc1cc(-c2nnn(C)n2)cc(C)c1-c1ccc(F)c(COc2ccc([C@H]3C[C@@H]3C(=O)O)nc2)c1 [Example 17, (1S,2S)-2-{5-[4-Fluoro-2′,6′-dimethyl-4′-(2-methyl-2H-tetrazol-5-yl)-biphenyl-3-ylmethoxy]-pyridin-2-yl}-cyclopropanecarboxylic Acid]
pEC50: 8.52

Cc1cc(-c2cnccn2)cc(C)c1-c1ccc(F)c(COc2ccc([C@H]3C[C@@H]3C(=O)O)nc2)c1 [Example 19, (1S,2S)-2-[5-(4-Fluoro-2′,6′-dimethyl-4′-pyrazin-2-yl-biphenyl-3-ylmethoxy)-pyridin-2-yl]-cyclopropanecarboxylic Acid]
pEC50: 8.15

Cc1cc(OCC2(C)COC2)cc(C)c1-c1ccc(F)c(COc2ccc([C@H]3C[C@@H]3C(=O)O)nc2)c1 [Example 23, (1S,2S)-2-{5-[4-Fluoro-2′,6′-dimethyl-4′-(3-methyl-oxetan-3-ylmethoxy)-biphenyl-3-ylmethoxy]-pyridin-2-yl}-cyclopropanecarboxylic Acid]
pEC50: 7.62

Cc1cc(-c2ccnn2C)cc(C)c1-c1ccc(F)c(COc2ccc([C@H]3C[C@@H]3C(=O)O)nc2)c1 [Example 21, (1S,2S)-2-{5-[4-Fluoro-2′,6′-dimethyl-4′-(2-methyl-2H-pyrazol-3-yl)-biphenyl-3-ylmethoxy]-pyridin-2-yl}-cyclopropanecarboxylic Acid]
pEC50: 8.22

COc1cc(-c2cc(C)c(-c3ccc(F)c(COc4ccc([C@H]5C[C@@H]5C(=O)O)nc4)c3)c(C)c2)ccn1 [Example 20, (1S,2S)-2-{5-[4-Fluoro-4′-(2-methoxy-pyridin-4-yl)-2′,6′-dimethyl-biphenyl-3-ylmethoxy]-pyridin-2-yl}-cyclopropanecarboxylic Acid]
pEC50: 8.30

CCc1cccc(CC)c1-c1cccc(COc2ccc([C@H]3C[C@@H]3C(=O)O)nc2)c1 [Example 9, (1S,2S)-2-[5-(2′,6′-Diethyl-biphenyl-3-ylmethoxy)-pyridin-2-yl]-cyclopropane-carboxylic Acid]
pEC50: 7.21

Cc1cc(OCC2CCCO2)cc(C)c1-c1cccc(COc2ccc([C@H]3C[C@@H]3C(=O)O)nc2)c1 (stereo partly drawn) [Example 11, (1S,2S)-2-{5-[2′,6′-Dimethyl-4′-(tetrahydro-furan-2-ylmethoxy)-biphenyl-3-ylmethoxy]-pyridin-2-yl}-cyclopropanecarboxylic Acid]
pEC50: 7.49

Cc1cc(OCCCS(C)(=O)=O)cc(C)c1-c1cccc(COc2ccc([C@H]3C[C@@H]3C(=O)O)nc2)c1 [Example 16, (1S,2S)-2-{5-[4′-(3-Methanesulfonyl-propoxy)-2′,6′-dimethyl-biphenyl-3-ylmethoxy]-pyridin-2-yl}-cyclopropanecarboxylic Acid]
pEC50: 7.43

Cc1cc(C(=O)O)cc(C)c1-c1ccc(F)c(COc2ccc([C@H]3C[C@@H]3C(=O)O)nc2)c1 [Example 24, (1S,2S)-3′-[6-(−2-Carboxy-cyclopropyl)-pyridin-3-yloxymethyl]-4′-fluoro-2,6-dimethyl-biphenyl-4-carboxylic Acid]
pEC50: 5.67

Cc1cc(-c2nnn(CC(C)(C)O)n2)cc(C)c1-c1cccc(COc2ccc([C@H]3C[C@@H]3C(=O)O)nc2)c1 [Example 6, (1S,2S)-2-(5-{4′-[2-(2-Hydroxy-2-methyl-propyl)-2H-tetrazol-5-yl]-2′,6′-dimethyl-biphenyl-3-ylmethoxy}-pyridin-2-yl)-cyclopropanecarboxylic Acid]
pEC50: 8.05

Cc1cc(O[C@H]2CCOC2)cc(C)c1-c1cccc(COc2ccc([C@H]3C[C@@H]3C(=O)O)nc2)c1 [Example 12, (1S,2S)-2-(5-{2′,6′-Dimethyl-4′-[(S)-(tetrahydrofuran-3-yl)oxy]-biphenyl-3-ylmethoxy}-pyridin-2-yl)-cyclopropanecarboxylic Acid]
pEC50: 7.57

Cc1cnc(-c2cc(C)c(-c3ccc(F)c(COc4ccc([C@H]5C[C@@H]5C(=O)O)nc4)c3)c(C)c2)nc1 [Example 22, (1S,2S)-2-{5-[4-Fluoro-2′,6′-dimethyl-4′-(5-methyl-pyrimidin-2-yl)-biphenyl-3-ylmethoxy]-pyridin-2-yl}-cyclopropanecarboxylic Acid]
pEC50: 8.40

O=C(O)[C@H]1C[C@@H]1c1ccc(OCc2cccc(-c3c(Cl)cccc3Cl)c2)cn1 [Example 15, (1S,2S)-2-[5-(2′,6′-Dichloro-biphenyl-3-ylmethoxy)-pyridin-2-yl]-cyclopropane-carboxylic Acid]
pEC50: 7.62

CC(C)(O)CCOc1ccc(-c2cc(COc3ccc([C@H]4C[C@@H]4C(=O)O)nc3)ccc2C(F)(F)F)cc1 [Example 30, (1S,2S)-2-{5-[4′-(3-Hydroxy-3-methyl-butoxy)-6-trifluoromethyl-biphenyl-3-ylmethoxy]-pyridin-2-yl}-cyclopropanecarboxylic Acid]
pEC50: 7.92

Cc1cc(OC2CCOCC2)cc(C)c1-c1cccc(COc2ccc([C@H]3C[C@@H]3C(=O)O)nc2)c1 [Example 13, (1S,2S)-2-{5-[2′,6′-Dimethyl-4′-(tetrahydro-pyran-4-yloxy)-biphenyl-3-ylmethoxy]-pyridin-2-yl}-cyclopropanecarboxylic Acid]
pEC50: 7.54

COc1cc(-c2cc(C)c(-c3cccc(COc4ccc([C@H]5C[C@@H]5C(=O)O)nc4)c3)c(C)c2)ccn1 [Example 8, (1S,2S)-2-{5-[4′-(2-Methoxy-pyridin-4-yl)-2′,6′-dimethyl-biphenyl-3-ylmethoxy]-pyridin-2-yl}-cyclopropanecarboxylic Acid]
pEC50: 8.22

Cc1cc(-c2cnccn2)cc(C)c1-c1cccc(COc2ccc([C@H]3C[C@@H]3C(=O)O)nc2)c1 [Example 5, (1S,2S)-2-[5-(2′,6′-Dimethyl-4′-pyrazin-2-yl-biphenyl-3-ylmethoxy)-pyridin-2-yl]-cyclopropanecarboxylic Acid]
pEC50: 7.96

COc1cnc(-c2ccc(-c3cc(COc4ccc([C@H]5C[C@@H]5C(=O)O)nc4)ccc3C(F)(F)F)cc2)nc1 [Example 28, (1S,2S)-2-{5-[4′-(5-Methoxy-pyrimidin-2-yl)-6-trifluoromethyl-biphenyl-3-ylmethoxy]-pyridin-2-yl}-cyclopropanecarboxylic Acid]
pEC50: 8.40
